From PubChem BioAssay (NCI)
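Results reflect a 48-hour exposure of cells in 96-well plates to compound at five concentrations. GI50 is the concentration that inhibits growth by half. TGI denotes the concentration required for complete inhibition of growth.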

Legend:
Assay in all cases: NCI anticancer screen, dose series, 48 h
[1] = test system: KM12 colon
[2] = test system: HCT-15 colon
[3] = test system: T-47D breast
[4] = test system: SF-295 CNS
[5] = test system: DU-145 prostate
[6] = test system: SNB-75 CNS
[7] = test system: IGROV1 ovarian
[8] = test system: SR leukemia
[9] = test system: SK-MEL-2 melanoma
[10] = test system: UACC-62 melanoma

Structure (SMILES) | GI50 [1] [nM] | TGI [1] [µM] | GI50 [2] [nM] | TGI [2] [µM] | GI50 [3] [nM] | TGI [3] [µM] | GI50 [4] [nM] | TGI [4] [nM] | GI50 [5] [nM] | TGI [5] [µM] | GI50 [6] [nM] | TGI [6] [µM] | GI50 [7] [nM] | TGI [7] [µM] | GI50 [8] [nM] | TGI [8] [µM] | GI50 [9] [nM] | TGI [9] [µM] | GI50 [10] [nM] | TGI [10] [nM]
CSc1ccc(C2=NN(C(=O)c3ccc(N)cc3)C(c3ccc(F)cc3)C2)cc1 (stereo not drawn) | 2030 | 4.55 | 3280 | 14.4 | 6450 | 27.6 | 13200 | 27900 | 10600 | 24 | 14200 | 28.1 | 4370 | 25.5 | 1520 | 4.31 | 21100 | 39.9 | 10100 | 22500
C=C1CO[C@@H]2C[C@@H]1CC/C(C)=C/CC/C(C)=C/CC[C@@]2(C)O | 17400 | 36 | 19900 | 38 | 18300 | 42.8 | 19600 | 41700 | 18500 | 38.3 | 25000 | 46.3 | 3960 | 28.8 | 1710 | 12.8 | 27400 | > 64 | 18400 | 35100
CCCCCc1c(C)[nH]c(/C=c2\[nH]/c(=C3/C=c4ccccc4=N3)cc2OC)c1C | 51.1 | > 100 | 33.7 | 1.31 | 58.8 | 0.698 | 90.2 | 452 | 91.1 | 16.4 | 107 | 0.583 | 265 | 5.25 | 33.5 | 0.529 | 39.4 | 0.193 | 62.4 | 355
CCOc1cc(/C=N\NC(=O)N/N=C/c2ccc(O)c(OCC)c2)ccc1O | 1010 | > 100 | 3100 | > 100 | 6490 | > 100 | 2250 | > 100000 | 2210 | > 100 | 2760 | > 100 | 4710 | > 100 | 354 | > 39.1 | 1550 | > 100 | 1790 | > 100000
N#Cc1c(Oc2ccc(F)c(NC(=O)Cc3cccc(C(F)(F)F)c3)c2)ccc2nc(NC(=O)C3CC3)sc12 | 765 | > 100 | 261 | > 100 | 3220 | > 100 | 579 | > 100000 | 2340 | > 100 | 1100 | > 100 | 940 | > 44.7 | 672 | > 100 | 108 | 0.83 | 26.2 | –
CNCCOc1nc2c3cnccc3cc(-c3cc(OC)c(OC)c(OC)c3)c2c2ccncc12 | 53.6 | 2.52 | 46.7 | 2.19 | 29.6 | 0.48 | 21.1 | 101 | 22 | 0.167 | 30.4 | 0.162 | 28.1 | 0.357 | < 10 | – | 264 | 0.683 | 27 | 169
CN1CCN(c2ccc3nc4c(nc3c2C(F)(F)F)C(=O)c2ncccc2C4=O)CC1 | 2280 | 10.9 | 1190 | 3.11 | 1960 | 4.62 | 1270 | 2580 | 1230 | 2.6 | 1110 | 2.32 | 1410 | 3.07 | 446 | > 100 | 2050 | 4.34 | 1050 | 2310
Cc1cc2c(C(C)C)c(O)c(O)c(C=O)c2c(O)c1-c1c(C)cc2c(C(C)C)c(O)c(O)c(C=O)c2c1O (tested in a mixture with another compound) | 394 | 1.51 | 790 | 2.99 | 1770 | 7.03 | 325 | 1710 | 1120 | 3.07 | 1550 | 5.03 | 979 | 12.7 | 1460 | 17.8 | 1640 | 4.07 | 1870 | 4230
CN(C)CCOc1nc2ccccc2c2c1-c1ccc(Cl)cc1C2=O | 441 | 1.57 | 464 | 1.92 | 1530 | 4.55 | 1530 | > 100000 | 444 | 1.35 | 1220 | 2.62 | 444 | 1.73 | 305 | 1.03 | 2340 | 4.68 | 1380 | 2930
